Measurements as given in publication PMC7672472 (2020).
Where two headings read alike, the source gives them in different places. Each block holds one molecule with its values, some of them ahead of it.

Tests used:
[1] = system: MA-46 (MA) (DNA, aptamer) CTTACGACTCAGGCATTTTGCCGGGTAACGAAGTTACTGTCGTAAG; experiment: ITC; conditions: 20 mM Na+, 5 mM Mg2+
[2] = system: Dopamine Aptamer (DNA, aptamer) CGACGCCAGTTTGAAGGTTCGTTCGCAGGTGTGGAGTGACGTCG; conditions: 140 mM Na+, 4 mM K+, 2 mM Mg2+; 10 mM phosphate pH 7.4, 25 °C; 200 μM ligand
[3] = system: SCA2.1 (DNA, aptamer) CTTACGACCTTAAGTGGGGTTCGGGTGGAGTTTATGGGGTCGTAAG; experiment: ITC; conditions: 20 mM Na+, 0.5 mM Mg2+; 10 mM Tris-HCl pH 7.4, 23 °C; one-site model
[4] = system: SCA2.1 (DNA, aptamer) CTTACGACCTTAAGTGGGGTTCGGGTGGAGTTTATGGGGTCGTAAG; conditions: 20 mM Na+, 0.5 mM Mg2+; 10 mM Tris-HCl pH 7.4, 25 °C; 50 μM ligand
[5] = system: MMC1 (DNA, aptamer) CTTACGACCAGGGTTGGTTTCATCGGTGGTGTAATATGGTCGTAAG; experiment: ITC; conditions: 20 mM Na+, 0.5 mM Mg2+
[6] = system: Dopamine Aptamer (DNA, aptamer) CGACGCCAGTTTGAAGGTTCGTTCGCAGGTGTGGAGTGACGTCG; experiment: T5 Exo/Exo I digestion, SYBR Gold fluorescence; conditions: 140 mM Na+, 4 mM K+, 2 mM Mg2+; 10 mM phosphate pH 7.4, 25 °C; 200 μM ligand
[7] = system: ATP-33 (DNA, aptamer) CGCACCTGGGGGAGTATTGCGGAGGAAGGTGCG; experiment: T5 Exo digestion, PAGE; conditions: 10 mM Mg2+; 10 mM Tris-HCl pH 7.4, 25 °C; 250 μM ligand
[8] = system: ATP-28 (DNA, aptamer) CTGGGGGAGTATTGCGGAGGAAGGTGCG; experiment: ITC; conditions: 10 mM Mg2+; 10 mM Tris-HCl pH 7.4, 23 °C; sequential model, site 1 of 2
[9] = system: MA-Mutant (DNA, aptamer) CTTACGACGCAGGCATTTTGCCGGGTAACGAAGTTACTGTCGTAAG; experiment: ITC; conditions: 20 mM Na+, 5 mM Mg2+
[10] = system: MA-41 (DNA, aptamer) GACTCAGGCATTTTGCCGGGTAACGAAGTTACTGTCGTAAG; experiment: ITC; conditions: 20 mM Na+, 5 mM Mg2+; 10 mM Tris-HCl pH 7.4, 23 °C; one-site model
[11] = system: MMC1-Mutant (DNA, aptamer) CTTACGACCAGGGTTGGTTTCACCGGTGGTGTAATATGGTCGTAAG; experiment: ITC; conditions: 20 mM Na+, 0.5 mM Mg2+; 10 mM Tris-HCl pH 7.4, 23 °C; 2000 μM ligand in syringe
[12] = system: MMC1-42 (DNA, aptamer) CGACCAGGGTTGGTTTCATCGGTGGTGTAATATGGTCGTAAG; experiment: ITC; conditions: 20 mM Na+, 0.5 mM Mg2+; 10 mM Tris-HCl pH 7.4, 23 °C; one-site fit, half racemate concentration stated for MMC1 titrations
[13] = system: MMC2 (DNA, aptamer) CTTACGACCAGGGTTGGTCTCATCGGTGGTGTAATATGGTCGTAAG; experiment: continuous-injection ITC and exonuclease assay; conditions: 20 mM Na+, 0.5 mM Mg2+
[14] = system: MMC3 (DNA, aptamer) CTTACGGCCAGGGTTGGTCTCATCGGTGGTGTAATATGGTCGTAAG; experiment: continuous-injection ITC and exonuclease assay; conditions: 20 mM Na+, 0.5 mM Mg2+
[15] = system: MMC4 (DNA, aptamer) CTTACGAAGCAGGTGGGTAGGATAGTGTGTGTGCTGTCGTCGTAAG; experiment: continuous-injection ITC and exonuclease assay; conditions: 20 mM Na+, 0.5 mM Mg2+
[16] = system: MMC5 (DNA, aptamer) CTTACCGACTATATGGGCAGTATCGTCTAGTGCCTAAGGGTCGTAAG; experiment: continuous-injection ITC and exonuclease assay; conditions: 20 mM Na+, 0.5 mM Mg2+; 10 mM Tris-HCl pH 7.4, 23 °C; 1000 μM ligand in syringe; very weak or no binding
[17] = 10 mM Tris-HCl pH 7.4, 23 °C, 1000 μM ligand in syringe
[18] = 10 mM Tris-HCl pH 7.4, 23 °C, one-site model

Compound: CCN(CC)CC(=O)Nc1c(C)cccc1C
Kd [1, 17]: > 1000 µM

Compound: CNC(C)Cc1ccc2c(c1)OCO2 (stereo not drawn)
binding [2]: no | Kd [1, 18]: 103 ± 4 µM | Kd [3]: 24.5 ± 0.9 µM

Compound: CN[C@@H](C)Cc1ccccc1
binding [4]: no | Kd [1]: > 1000 µM

Compound: CN[C@@H](C)[C@H](O)c1ccccc1
Kd [3]: 64 ± 3 µM

Compound: COC(=O)[C@H]1[C@@H](OC(=O)c2ccccc2)C[C@@H]2CC[C@H]1N2C
binding [4]: no

Compound: NCCc1ccc(O)c(O)c1
Kd [5, 17]: > 1000 µM | binding [6]: yes

Compound: N[C@@H](Cc1ccc(O)cc1)C(=O)O
binding [6]: no

Compound: Nc1ccn([C@@H]2O[C@H](COP(=O)(O)OP(=O)(O)OP(=O)(O)O)[C@@H](O)[C@H]2O)c(=O)n1
binding [7]: no

Compound: Nc1nc2c(ncn2[C@@H]2O[C@H](COP(=O)(O)OP(=O)(O)OP(=O)(O)O)[C@@H](O)[C@H]2O)c(=O)[nH]1
binding [7]: no

Compound: CCNC(C)C(=O)c1ccc2c(c1)OCO2 (racemic)
Kd [1, 18]: 61 ± 2 µM | Kd [5]: 254 ± 22 µM

Compound: CNC(C)C(=O)c1ccc(C)cc1 (racemic)
Kd ([5]; 10 mM Tris-HCl pH 7.4, 23 °C, one-site fit with half the racemate concentration): 15 ± 1.3 µM | binding [11]: no | Kd [12]: 6.6 ± 0.7 µM | binding [13]: yes | binding [14]: yes | binding [15]: yes | binding [16]: no

Compound: CNC(C)C(=O)c1cccc(C)c1 (racemic)
Kd [5]: > 1000 µM

The next lines start with the values.

Kd [1, 18]: 0.6 ± 0.1 µM
Compound: CN(C)CCCN1c2ccccc2Sc2ccc(Cl)cc21

Kd [1, 18]: 55 ± 2 µM
Compound: NCCc1c[nH]c2ccc(O)cc12

Kd1 [8]: 4.1 ± 0.2 µM | binding [7]: yes
Compound: Nc1ncnc2c1ncn2[C@@H]1O[C@H](COP(=O)(O)OP(=O)(O)OP(=O)(O)O)[C@@H](O)[C@H]1O

binding [7]: no
Compound: O=c1ccn([C@@H]2O[C@H](COP(=O)(O)OP(=O)(O)OP(=O)(O)O)[C@@H](O)[C@H]2O)c(=O)[nH]1

binding [4]: yes | Kd [1, 18]: 18.8 ± 1.4 µM | binding [9]: no | Kd [10]: 24.8 ± 0.7 µM
Compound: CCCC(C(=O)c1ccc2c(c1)OCO2)N1CCCC1 (racemic)

Kd [5]: > 1000 µM
Compound: CNC(C)C(=O)c1ccc(F)cc1 (racemic)

Kd ([5]; 10 mM Tris-HCl pH 7.4, 23 °C, 10-fold lower affinity than mephedrone, half racemate concentration): 146 ± 34 µM
Compound: CNC(C)C(=O)c1ccc(OC)cc1 (racemic)

Kd [5]: 275 ± 17 µM
Compound: CNC(C)C(=O)c1ccc2c(c1)OCO2 (racemic)

Kd [5]: 654 ± 61 µM
Compound: CNC(C)C(=O)c1ccccc1 (racemic)
